Consider five compounds from publication PMC2798597 (Biochemical pharmacology, 2009).

Where two headings read alike, the source gives them in different places.

Broadly, the IC50 is the concentration needed to halve the response being measured. In general, AUC(0-t) refers to exposure summed from dosing to a finite time, without extrapolation to infinity. A word on the AUC(0-inf): it is the area under the concentration-time curve extrapolated to infinity. In general, clearance refers to a measure of how efficiently the substance is removed, as volume per time. A low value points to inefficient removal. By MRT is commonly meant a mean duration of stay, worked out from the concentration-time curve. Usually half-life stands for the time in which the quantity being followed falls by half. Read a low half-life as fast loss. The term Vd denotes the apparent volume that relates the amount in the body to the concentration in plasma or blood. Higher therefore signals wide distribution into tissue.

One data set concerns MCF-7. Nature of the data set: MTT cytotoxicity / MDR reversal. Type of data set: cell-based, human. The following applies: for fold-reversal: no FG020326 (reference).
In a further data set the test system is MCF-7/adr (ABCB1). Nature of the data set: MTT cytotoxicity / MDR reversal. Type of data set: cell-based, human. The following applies: for IC50: Homo sapiens, NCI/ADR-RES, read-out: IC50 ± SD; for fold-reversal: MCF-7/adr cells, drug alone, no FG020326 (reference).
The subject of a further data set is KB. Nature of the data set: MTT cytotoxicity / MDR reversal. Type of data set: cell-based, human. The following applies: for IC50: Homo sapiens, KB, read-out: IC50 ± SD; for fold-reversal: KB cells, drug alone, no FG020326 (reference).
In a further data set the test system is KBv200 (ABCB1). Nature of the data set: MTT cytotoxicity / MDR reversal. In kind it is cell-based, human. The following applies: for IC50: Homo sapiens, KBv200, read-out: IC50 ± SD; for fold-reversal: KBv200 cells, drug alone, no FG020326 (reference).
Another data set has as its system SW1573. Nature of the data set: MTT cytotoxicity / MDR reversal. Type of data set: cell-based, human.
The next data set relates to SW1573/2R120 (LRP). Nature of the data set: MTT cytotoxicity / MDR reversal. Type of data set: cell-based, human.
The next data set concerns KBv200 cell xenografts. Kind of data set: MDR human carcinoma xenograft model. In kind it is in vivo, athymic nude mice. (In general: Xenograft models place foreign cells or tissue in a host animal.)
Data set [1] in a line: Paclitaxel plasma levels / pharmacokinetics in mice. Type of data set: in vivo, NIH mice. As to conditions: for AUC(0-t): AUC0→ 12, paclitaxel 18 mg/kg i.v.
For another data set, the system named is S1. Kind of data set: MTT cytotoxicity / MDR reversal. Type of data set: cell-based.
The test system of a further data set is S1-M1-80 (ABCG2). Kind of data set: MTT cytotoxicity / MDR reversal. In kind it is cell-based.
A further data set has as its system KB-3-1. Nature of the data set: MTT cytotoxicity / MDR reversal. In kind it is cell-based, human.
The subject of a further data set is KB-CV60 (ABCC1). Kind of data set: MTT cytotoxicity / MDR reversal. In kind it is cell-based, human.
Another data set deals with NIH3T3. Nature of the data set: MTT cytotoxicity / MDR reversal. Type of data set: cell-based, murine.
Another data set has as its system NIH3T3/MRP-4-2 (ABCC4). Kind of data set: MTT cytotoxicity / MDR reversal. In kind it is cell-based, murine.
The mark [2] stands for this setting: Homo sapiens, MCF7, read-out: IC50 ± SD.
The mark [3] stands for this setting: Homo sapiens, SW1573, read-out: IC50 ± SD.
[4] abbreviates: paclitaxel experiment, paclitaxel 18 mg/kg i.p. q5d×3, FG020326 100 mg/kg p.o.
[5] abbreviates: Mus musculus, NIH3T3, read-out: IC50 ± SD.
Setting [6] is: VCR experiment, VCR 0.2 mg/kg i.p. q2d×6, FG020326 100 mg/kg p.o. q2d×6.

In the case of `N.N.[Cl][Pt][Cl]` [Cisplatin, cisplatin, reference compound], the IC50 in the data set on MCF-7 (read-out: IC50 ± SD, MCF-7 cells, drug alone, no FG020326) was determined as 3550 ± 213 nM.
For `COc1cccc2c1C(=O)c1c(O)c3c(c(O)c1C2=O)C[C@@](O)(C(=O)CO)C[C@@H]3O[C@H]1C[C@H](N)[C@H](O)[C@H](C)O1` [Doxorubicin, doxorubicin, reference compound], the IC50 worked out at 81 ± 10 nM in the data set with MCF-7 (setting [2]); 14.3 ± 1.42 µM in the data set on MCF-7/adr (ABCB1); 20 ± 10 nM in the data set with KB; 979 ± 123 nM with KBv200 (ABCB1); 116 ± 24 nM with SW1573 (setting [3]); 1540 ± 279 nM with SW1573/2R120 (LRP) (setting [3]). The fold-reversal entry in the data set with MCF-7 (MCF-7 cells, drug alone) was “(1.0) fold”; with MCF-7/adr (ABCB1) it was “(1.0) fold”; in the data set on KB it was “(1.0) fold”; with KBv200 (ABCB1), “(1.0) fold”; in the data set with SW1573 (SW1573 cells, drug alone, no FG020326 (reference)) it was “(1.0) fold”; in the data set with SW1573/2R120 (LRP) (SW1573/2R120 cells, drug alone, no FG020326 (reference)), “(1.0) fold”.
In the case of `CC(=O)O[C@H]1C(=O)[C@@]2(C)[C@H]([C@H](OC(=O)c3ccccc3)[C@]3(O)C[C@H](OC(=O)[C@H](O)[C@@H](NC(=O)c4ccccc4)c4ccccc4)C(C)=C1C3(C)C)[C@]1(OC(C)=O)CO[C@@H]1C[C@@H]2O` [Paclitaxel], the IC50 with MCF-7 (setting [2]) came out at 6.91 ± 0.903 nM; with MCF-7/adr (ABCB1), 0.34 ± 0.0387 µM; with KB it was 1.38 ± 0.148 nM; in the data set with KBv200 (ABCB1) it was 48.3 ± 4.12 nM. Also, the fold-reversal entry is on record as “(1.0) fold” in the data set on MCF-7 (MCF-7 cells, drug alone); “(1.0) fold” in the data set with MCF-7/adr (ABCB1); “(1.0) fold” with KB; “(1.0) fold” with KBv200 (ABCB1). Further, the “Growth Inhibition” value in the data set with KBv200 cell xenografts (setting [4]) is reported as 8.1%. For the same compound, the “Post-experiment Weight (body weight)” value with KBv200 cell xenografts (setting [4]) amounted to 24.4 ± 2.6 g. For the same compound, the Weight of tumor in the data set with KBv200 cell xenografts (setting [4]) was determined as 2.06 ± 1.06 g. In addition, the AUC(0-t) came to 69400 ± 2260 ng·h/mL in data set [1] (both, NIH, mouse, plasma, iv, 18 mg/kg, with FG020326 100 mg/kg p.o.) and 73600 ± 5580 ng·h/mL in [1] (both, NIH, mouse, plasma, iv, 18 mg/kg, without FG020326). Also, the AUC(0-inf) in data set [1] (both, NIH, mouse, plasma, iv, 18 mg/kg, AUC0→ ∞, paclitaxel 18 mg/kg i.v., without FG020326) amounted to 73700 ± 5570 ng·h/mL. In data set [1] (both, NIH, mouse, plasma, iv, 18 mg/kg, CL, paclitaxel 18 mg/kg i.v., without FG020326), this compound had a clearance of 0.0888 mL/min. Also, the MRT in data set [1] (both, NIH, mouse, plasma, iv, 18 mg/kg, MRT, paclitaxel 18 mg/kg i.v., without FG020326) was 1.54 ± 0.02 h. This compound gave a half-life in data set [1] (both, NIH, mouse, plasma, iv, 18 mg/kg, T1/2β, paclitaxel 18 mg/kg i.v., with FG020326 100 mg/kg p.o.) of 85.2 ± 4.8 min. For the same compound, the Vd in data set [1] (both, NIH, mouse, plasma, iv, 18 mg/kg, Vd, paclitaxel 18 mg/kg i.v., without FG020326) worked out at 0.0124 ± 0.0011 L. In data set [1] (paclitaxel 18 mg/kg i.v., without FG020326), this compound gave a T1/2α of 33 ± 2.4 min.
Consider `CC[C@@]1(O)C(=O)OCc2c1cc1n(c2=O)Cc2cc3c(CN(C)C)c(O)ccc3nc2-1` [Topotecan, topotecan], for which the fold-reversal result in the data set with S1 (S1 cells, drug alone, no FG020326 (reference)) was “(1.0) fold”; with S1-M1-80 (ABCG2) (S1-M1-80 cells, drug alone, no FG020326 (reference)), “(1.0) fold”. The IC50 in the data set with S1 (read-out: IC50 ± SD) turned out to be 84 ± 24 nM; in the data set with S1-M1-80 (ABCG2) (Homo sapiens, S1-M1-80, read-out: IC50 ± SD), 12 ± 1.28 µM. Further, the fold resistance in the data set on S1-M1-80 (ABCG2) (S1-M1-80 compared with S1 cells) amounted to 143.2 fold.
As to `CC[C@]1(O)C[C@H]2CN(CCc3c([nH]c4ccccc34)[C@@](C(=O)OC)(c3cc4c(cc3OC)N(C=O)[C@H]3[C@@](O)(C(=O)OC)[C@H](OC(C)=O)[C@]5(CC)C=CCN6CC[C@]43[C@@H]65)C2)C1` [Vincristine, vincristine], the IC50 in the data set with MCF-7 (setting [2]) was determined as 59 ± 9 nM; in the data set on MCF-7/adr (ABCB1), 4.02 ± 0.656 µM; with KB, 28 ± 9 nM; with KBv200 (ABCB1), 1320 ± 256 nM; in the data set with KB-3-1 (Homo sapiens, KB 3-1, read-out: IC50 ± SD) it was 7.26 ± 0.724 µM; in the data set on KB-CV60 (ABCC1) (Homo sapiens, KB-CV60, read-out: IC50 ± SD), 88.6 ± 8.28 µM. Moreover, the results for the IC50 in the data set with NIH3T3 (setting [5]) and in the data set on NIH3T3/MRP-4-2 (ABCC4) (setting [5]) were 324 ± 24 nM and 7.25 ± 0.779 µM, respectively. Besides, the fold-reversal entry with MCF-7 (MCF-7 cells, drug alone) is “(1.0) fold”; in the data set with MCF-7/adr (ABCB1), “(1.0) fold”; in the data set with KB it was “(1.0) fold”; with KBv200 (ABCB1), “(1.0) fold”; in the data set with KB-3-1 (KB-3-1 cells, drug alone, no FG020326 (reference)), “(1.0) fold”; in the data set with KB-CV60 (ABCC1) (KB-CV60 cells, drug alone, no FG020326 (reference)), “(1.0) fold”. Moreover, the fold-reversal entry in the data set with NIH3T3 (NIH3T3 cells, drug alone, no FG020326 (reference)) is given as “(1.0) fold”; in the data set on NIH3T3/MRP-4-2 (ABCC4) (NIH3T3/MRP-4-2 cells, drug alone, no FG020326 (reference)) it was “(1.0) fold”. Besides, the “Post-experiment Weight (body weight)” value in the data set on KBv200 cell xenografts (setting [6]) turned out to be 25.6 ± 1.9 g. For the same compound, the Weight of tumor with KBv200 cell xenografts (setting [6]) is 2.92 ± 0.94 g.
